Experiments:
Assay type in all cases: in vivo
Settings in all cases: treatment dosage 320 g/ha
barnyard grass [1] = assay: Test Example 1: weedkilling efficacy, preemergent weed treatment in the submerged state; A: barnyard grass
How it was run: (§1)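 Pre-emergence paddy test: weed seeds sown in submerged alluvial soil (4 cm water), 2.5-leaf rice transplanted, water-diluted emulsion applied to water surface at sowing at stated g/ha. Scored at 3 weeks, greenhouse 25–30 °C.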

bulrush [2] = assay: Test Example 1: weedkilling efficacy, preemergent weed treatment in the submerged state; B: bulrush
How it was run: as §1

oval-leafed pondweed [3] = assay: Test Example 1: weedkilling efficacy, preemergent weed treatment in the submerged state; C: oval-leafed pondweed
How it was run: as §1

transplanted rice = assay: Test Example 1: preemergent weed treatment in the submerged state, effect on crop; a: transplanted rice
How it was run: as §1

barnyard grass [4] = assay: Test Example 2: weedkilling efficacy, growth period weed treatment in the submerged state; A: barnyard grass
How it was run: (§2)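 Seedlings at 1-2 leaves in 4 cm-deep submerged alluvial soil received emulsion formulations on the water surface, dosed per hectare; effects were judged 3 weeks on.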

bulrush [5] = assay: Test Example 2: weedkilling efficacy, growth period weed treatment in the submerged state; B: bulrush
How it was run: as §2

oval-leafed pondweed [6] = assay: Test Example 2: weedkilling efficacy, growth period weed treatment in the submerged state; C: oval-leafed pondweed
How it was run: as §2

crabgrass [7] = assay: Test Example 3: weedkilling efficacy through soil treatment; D: crabgrass
How it was run: (§3)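 Crop and weed responses were judged three weeks after a uniform surface spray of the water-diluted emulsion at the given g/ha rate. Seeds sat beneath about 1.5 cm of sterilized diluvial soil, and boxes stood in a greenhouse at 25 to 30° C.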

green foxtail [8] = assay: Test Example 3: weedkilling efficacy through soil treatment; E: green foxtail
How it was run: as §3

barnyard grass [9] = assay: Test Example 3: weedkilling efficacy through soil treatment; F: barnyard grass
How it was run: as §3

wild oat [10] = assay: Test Example 3: weedkilling efficacy through soil treatment; G: wild oat
How it was run: as §3

black-grass [11] = assay: Test Example 3: weedkilling efficacy through soil treatment; H: black-grass
How it was run: as §3

Italian ryegrass [12] = assay: Test Example 3: weedkilling efficacy through soil treatment; I: Italian ryegrass
How it was run: as §3

common wind-grass [13] = assay: Test Example 3: weedkilling efficacy through soil treatment; J: common wind-grass
How it was run: as §3

Indian mallow [14] = assay: Test Example 3: weedkilling efficacy through soil treatment; K: Indian mallow
How it was run: as §3

redroot pigweed [15] = assay: Test Example 3: weedkilling efficacy through soil treatment; L: redroot pigweed
How it was run: as §3

catchweed [16] = assay: Test Example 3: weedkilling efficacy through soil treatment; O: catchweed
How it was run: as §3

birds-eye speedwell = assay: Test Example 3: weedkilling efficacy through soil treatment; p: birds-eye speedwell
How it was run: as §3

directly sown rice [17] = assay: Test Example 3: soil treatment, effect on crop; b: directly sown rice
How it was run: as §3

corn [18] = assay: Test Example 3: soil treatment, effect on crop; c: corn
How it was run: as §3

soybean [19] = assay: Test Example 3: soil treatment, effect on crop; d: soybean
How it was run: as §3

wheat [20] = assay: Test Example 3: soil treatment, effect on crop; e: wheat
How it was run: as §3

beet [21] = assay: Test Example 3: soil treatment, effect on crop; f: beet
How it was run: as §3

rapeseed [22] = assay: Test Example 3: soil treatment, effect on crop; g: rapeseed
How it was run: as §3

crabgrass [23] = assay: Test Example 4: weedkilling efficacy by foliar treatment; D: crabgrass
How it was run: (§4)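 Seeds are spot-sown into sterilized diluvial soil and covered with about 1.5 cm of soil. After 14 days' greenhouse growth at 25 to 30° C, plants are sprayed on stems and leaves with diluted emulsion at the stated g/ha rate, then scored at 3 weeks.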

green foxtail [24] = assay: Test Example 4: weedkilling efficacy by foliar treatment; E: green foxtail
How it was run: as §4

barnyard grass [25] = assay: Test Example 4: weedkilling efficacy by foliar treatment; F: barnyard grass
Procedure: Testing of Weedkilling Efficacy by Foliar Treatment
Sterilized diluvial soil was introduced into 21 cm long, 13 cm wide, 7 cm deep plastic boxes, and seeds of crabgrass, green foxtail, barnyard grass, wild oat, black-grass, Italian ryegrass, common wind-grass, Indian mallow, redroot pigweed, fig-leafed goosefoot, chickweed, catchweed, birds-eye speedwell, corn, soybean, rice, wheat, beet and rapeseed were each spot-sown, and covered with about 1.5 cm of soil, then the plants were grown in a greenhouse at 25 to 30° C.
After they had grown for 14 days, emulsions of compounds of the present invention prepared according to compounding example 2 were diluted with water to give the specified dosages, and applied uniformly onto the stem and leaf parts with a small sprayer. 3 weeks after the pesticide treatment the effect on each type of plant was investigated on the basis of the assessment criteria of test example 1.
A: barnyard grass, B: bulrush, C: oval-leafed pondweed, D: crabgrass, E: green foxtail, F: barnyard grass, G: wild oat, H: black-grass, I: Italian ryegrass, J: common wind-grass, K: Indian mallow, L: redroot pigweed, M: fig-leafed goosefoot, N: chickweed, O: catchweed, p: birds-eye speedwell, a: transplanted rice, b: directly sown rice, c: corn, d: soybean, e: wheat, f: beet, g: rapeseed
Further, pesticide dosage (g/ha) indicates the concentration regulated such that treatment was with only the stated number of grams (g), when calculated per hectare (ha).

wild oat [26] = assay: Test Example 4: weedkilling efficacy by foliar treatment; G: wild oat
How it was run: as §4

black-grass [27] = assay: Test Example 4: weedkilling efficacy by foliar treatment; H: black-grass
How it was run: as §4

Italian ryegrass [28] = assay: Test Example 4: weedkilling efficacy by foliar treatment; I: Italian ryegrass
How it was run: as §4

common wind-grass [29] = assay: Test Example 4: weedkilling efficacy by foliar treatment; J: common wind-grass
How it was run: as §4

Indian mallow [30] = assay: Test Example 4: weedkilling efficacy by foliar treatment; K: Indian mallow
How it was run: as §4

redroot pigweed [31] = assay: Test Example 4: weedkilling efficacy by foliar treatment; L: redroot pigweed
How it was run: as §4

fig-leafed goosefoot = assay: Test Example 4: weedkilling efficacy by foliar treatment; M: fig-leafed goosefoot
How it was run: as §4

chickweed = assay: Test Example 4: weedkilling efficacy by foliar treatment; N: chickweed
How it was run: as §4

catchweed [32] = assay: Test Example 4: weedkilling efficacy by foliar treatment; O: catchweed
How it was run: as §4

directly sown rice [33] = assay: Test Example 4: foliar treatment, effect on crop; b: directly sown rice
How it was run: as §4

corn [34] = assay: Test Example 4: foliar treatment, effect on crop; c: corn
How it was run: as §4

soybean [35] = assay: Test Example 4: foliar treatment, effect on crop; d: soybean
How it was run: as §4

wheat [36] = assay: Test Example 4: foliar treatment, effect on crop; e: wheat
How it was run: as §4

beet [37] = assay: Test Example 4: foliar treatment, effect on crop; f: beet
How it was run: as §4

rapeseed [38] = assay: Test Example 4: foliar treatment, effect on crop; g: rapeseed
How it was run: as §4

CC1=C(c2ccccc2)C(=O)N(C(C)(C)C(=O)Nc2cc(Br)cc(F)n2)CO1 [B-2-35]
A (barnyard grass) weedkilling efficacy grade (barnyard grass [1]): 5 (weed kill ratio 90% or more, (practically complete withering))
B (bulrush) weedkilling efficacy grade (bulrush [2]): 5 (weed kill ratio 90% or more, (practically complete withering))
C (oval-leafed pondweed) weedkilling efficacy grade (oval-leafed pondweed [3]): 5 (weed kill ratio 90% or more, (practically complete withering))
a (transplanted rice) effect on crop grade (transplanted rice): 0 (weed kill ratio 5% or less (practically no effect))
A (barnyard grass) weedkilling efficacy grade (barnyard grass [4]): 5 (weed kill ratio 90% or more, (practically complete withering))
B (bulrush) weedkilling efficacy grade (bulrush [5]): 5 (weed kill ratio 90% or more, (practically complete withering))
C (oval-leafed pondweed) weedkilling efficacy grade (oval-leafed pondweed [6]): 5 (weed kill ratio 90% or more, (practically complete withering))
D (crabgrass) weedkilling efficacy grade (crabgrass [7]): 5 (weed kill ratio 90% or more, (practically complete withering))
E (green foxtail) weedkilling efficacy grade (green foxtail [8]): 5 (weed kill ratio 90% or more, (practically complete withering))
F (barnyard grass) weedkilling efficacy grade (barnyard grass [9]): 4 (weed kill ratio 70% or more, less than 90%)
G (wild oat) weedkilling efficacy grade (wild oat [10]): 4 (weed kill ratio 70% or more, less than 90%)
H (black-grass) weedkilling efficacy grade (black-grass [11]): 5 (weed kill ratio 90% or more, (practically complete withering))
I (Italian ryegrass) weedkilling efficacy grade (Italian ryegrass [12]): 5 (weed kill ratio 90% or more, (practically complete withering))
J (common wind-grass) weedkilling efficacy grade (common wind-grass [13]): 5 (weed kill ratio 90% or more, (practically complete withering))
K (Indian mallow) weedkilling efficacy grade (Indian mallow [14]): 4 (weed kill ratio 70% or more, less than 90%)
L (redroot pigweed) weedkilling efficacy grade (redroot pigweed [15]): 3 (weed kill ratio 40% or more, less than 70%)
O (catchweed) weedkilling efficacy grade (catchweed [16]): 0 (weed kill ratio 5% or less (practically no effect))
P (birds-eye speedwell) weedkilling efficacy grade (birds-eye speedwell): 4 (weed kill ratio 70% or more, less than 90%)
b (directly sown rice) effect on crop grade (directly sown rice [17]): 2 (weed kill ratio 20% or more, less than 40%)
c (corn) effect on crop grade (corn [18]): 1 (weed kill ratio 5% or more, less than 20%)
d (soybean) effect on crop grade (soybean [19]): 0 (weed kill ratio 5% or less (practically no effect))
e (wheat) effect on crop grade (wheat [20]): 1 (weed kill ratio 5% or more, less than 20%)
f (beet) effect on crop grade (beet [21]): 4 (weed kill ratio 70% or more, less than 90%)
g (rapeseed) effect on crop grade (rapeseed [22]): 4 (weed kill ratio 70% or more, less than 90%)
D (crabgrass) weedkilling efficacy grade (crabgrass [23]): 5 (weed kill ratio 90% or more, (practically complete withering))
E (green foxtail) weedkilling efficacy grade (green foxtail [24]): 5 (weed kill ratio 90% or more, (practically complete withering))
F (barnyard grass) weedkilling efficacy grade (barnyard grass [25]): 5 (weed kill ratio 90% or more, (practically complete withering))
G (wild oat) weedkilling efficacy grade (wild oat [26]): 2 (weed kill ratio 20% or more, less than 40%)
H (black-grass) weedkilling efficacy grade (black-grass [27]): 4 (weed kill ratio 70% or more, less than 90%)
I (Italian ryegrass) weedkilling efficacy grade (Italian ryegrass [28]): 4 (weed kill ratio 70% or more, less than 90%)
J (common wind-grass) weedkilling efficacy grade (common wind-grass [29]): 4 (weed kill ratio 70% or more, less than 90%)
K (Indian mallow) weedkilling efficacy grade (Indian mallow [30]): 3 (weed kill ratio 40% or more, less than 70%)
L (redroot pigweed) weedkilling efficacy grade (redroot pigweed [31]): 3 (weed kill ratio 40% or more, less than 70%)
M (fig-leafed goosefoot) weedkilling efficacy grade (fig-leafed goosefoot): 4 (weed kill ratio 70% or more, less than 90%)
N (chickweed) weedkilling efficacy grade (chickweed): 3 (weed kill ratio 40% or more, less than 70%)
O (catchweed) weedkilling efficacy grade (catchweed [32]): 5 (weed kill ratio 90% or more, (practically complete withering))
b (directly sown rice) effect on crop grade (directly sown rice [33]): 4 (weed kill ratio 70% or more, less than 90%)
c (corn) effect on crop grade (corn [34]): 1 (weed kill ratio 5% or more, less than 20%)
d (soybean) effect on crop grade (soybean [35]): 4 (weed kill ratio 70% or more, less than 90%)
e (wheat) effect on crop grade (wheat [36]): 0 (weed kill ratio 5% or less (practically no effect))
f (beet) effect on crop grade (beet [37]): 3 (weed kill ratio 40% or more, less than 70%)
g (rapeseed) effect on crop grade (rapeseed [38]): 4 (weed kill ratio 70% or more, less than 90%)
